Earlier results in patent publication US8765743B2, “Compounds” (Glaxosmithkline Intellectual Property Development Limited, priority 2008, dated 2014).
Like-named read-outs stand apart in the source and are kept apart here.

Experiments:
[1] = tested on: Class I PI3-kinases
[2] = molecular target: CK2 protein kinase (Homo sapiens, UniProt P68400)
Sequence of CK2 protein kinase (P68400 whole entry): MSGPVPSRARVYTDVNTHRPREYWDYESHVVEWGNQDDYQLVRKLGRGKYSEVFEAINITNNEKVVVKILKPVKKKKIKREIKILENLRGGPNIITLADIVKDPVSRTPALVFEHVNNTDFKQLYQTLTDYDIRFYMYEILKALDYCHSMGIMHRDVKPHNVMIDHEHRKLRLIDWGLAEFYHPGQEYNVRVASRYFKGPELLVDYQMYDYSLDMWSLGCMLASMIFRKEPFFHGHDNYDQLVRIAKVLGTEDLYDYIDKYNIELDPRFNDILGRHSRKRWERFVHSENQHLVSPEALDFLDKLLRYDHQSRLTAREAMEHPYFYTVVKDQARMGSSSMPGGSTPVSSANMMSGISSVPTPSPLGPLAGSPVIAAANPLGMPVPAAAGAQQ

Row | Compound | IC50 ([1]; read-out: IC50 values against each of the various Class I PI3-kinases) [µM] | IC50 ([1]; Fruman et al. 1998, read-out: IC50 values against each of these PI3-kinases) [µM] | IC50 [2] [µM]
1 | wortmannin | 0.001 to 0.01 |  | 
2 | O=c1cc(N2CCOCC2)oc2c(-c3ccccc3)cccc12 [LY294002] |  | 15 to 20 | 5 to 10
